# Laboratory results taken from the supplement of paper PMC10307832.
# Key:
# Test in all cases: relative viability (nuclei count vs DMSO), 5 days (fraction); higher = more cells survive
# AZ3146 + Crizotinib = compound: CN1CCC(CC1)OC2=CC(=C(C=C2)NC3=NC=C4C(=N3)N(C(=O)N4C)C5CCCC5)OC [AZ3146] + C[C@@H](Oc1cc(-c2cnn(C3CCNCC3)c2)cnc1N)c1c(Cl)ccc(F)c1Cl [Crizotinib] (partner 1 µM)
# Outline: (§1)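 For relative viability, nuclei counts in treated wells were divided by those in vehicle wells. Lung cancer cell lines had been pin-tool dosed in 1536-well plates the day after seeding and cultured for 5 days, then fixed and stained in one step (final 0.05% Triton X-100, 1% formaldehyde, 1 ug/ml Hoechst) and imaged at 4×. Doses were one drug alone or a fixed anchor-drug dose plus five library-drug doses (not always all listed) in √10 steps, and values are duplicate-plate medians.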
# AZ3146 + Decitabine = compound: CN1CCC(CC1)OC2=CC(=C(C=C2)NC3=NC=C4C(=N3)N(C(=O)N4C)C5CCCC5)OC [AZ3146] + Nc1ncn([C@H]2C[C@H](O)[C@@H](CO)O2)c(=O)n1 [Decitabine] (partner 2 µM)
# Outline: as §1
# GSK-J4 + Palbociclib = compound: CCOC(=O)CCNc1cc(N2CCc3ccccc3CC2)nc(-c2ccccn2)n1 [GSK-J4] + CC(=O)c1c(C)c2cnc(Nc3ccc(N4CCNCC4)cn3)nc2n(C2CCCC2)c1=O [Palbociclib] (partner 0.5 µM)
# Outline: as §1
# GSK-J4 + AZD7762 = compound: CCOC(=O)CCNc1cc(N2CCc3ccccc3CC2)nc(-c2ccccn2)n1 [GSK-J4] + NC(=O)Nc1cc(-c2cccc(F)c2)sc1C(=O)N[C@H]1CCCNC1 [AZD7762] (partner 0.2 µM)
# Outline: as §1
cell line,measurement,setting,value
PC-14,relative viability,AZ3146 + Crizotinib; first compound 0.08 µM,0.898
same,relative viability,AZ3146 + Crizotinib; first compound 0.253 µM,0.98
same,relative viability,AZ3146 + Crizotinib; first compound 0.8 µM,0.975
same,relative viability,AZ3146 + Crizotinib; first compound 2.53 µM,1
same,relative viability,AZ3146 + Crizotinib; first compound 8 µM,0.828
same,relative viability,AZ3146 + Decitabine; first compound 0.08 µM,0.208
same,relative viability,AZ3146 + Decitabine; first compound 0.253 µM,0.2
same,relative viability,AZ3146 + Decitabine; first compound 0.8 µM,0.249
same,relative viability,AZ3146 + Decitabine; first compound 2.53 µM,0.15
same,relative viability,AZ3146 + Decitabine; first compound 8 µM,0.0833
same,relative viability,GSK-J4 + Palbociclib; first compound 0.5 µM,0.471
same,relative viability,GSK-J4 + Palbociclib; first compound 1.581 µM,0.624
same,relative viability,GSK-J4 + Palbociclib; first compound 5 µM,0.454
same,relative viability,GSK-J4 + Palbociclib; first compound 15.81 µM,0.518
same,relative viability,GSK-J4 + Palbociclib; first compound 50 µM,0.544
same,relative viability,GSK-J4 + AZD7762; first compound 0.5 µM,0.503
same,relative viability,GSK-J4 + AZD7762; first compound 1.581 µM,0.316
same,relative viability,GSK-J4 + AZD7762; first compound 15.81 µM,0.315
same,relative viability,GSK-J4 + AZD7762; first compound 50 µM,0.343
LC-2-ad,relative viability,AZ3146 + Crizotinib; first compound 0.08 µM,0.365
same,relative viability,AZ3146 + Crizotinib; first compound 0.253 µM,0.511
same,relative viability,AZ3146 + Crizotinib; first compound 0.8 µM,0.481
same,relative viability,AZ3146 + Crizotinib; first compound 2.53 µM,0.494
same,relative viability,AZ3146 + Crizotinib; first compound 8 µM,0.321
same,relative viability,AZ3146 + Decitabine; first compound 0.08 µM,0.729
same,relative viability,AZ3146 + Decitabine; first compound 0.253 µM,0.783
same,relative viability,AZ3146 + Decitabine; first compound 0.8 µM,0.728
same,relative viability,AZ3146 + Decitabine; first compound 2.53 µM,0.781
same,relative viability,AZ3146 + Decitabine; first compound 8 µM,0.716
same,relative viability,GSK-J4 + Palbociclib; first compound 0.5 µM,0.438
same,relative viability,GSK-J4 + Palbociclib; first compound 1.581 µM,0.404
same,relative viability,GSK-J4 + Palbociclib; first compound 5 µM,0.447
same,relative viability,GSK-J4 + Palbociclib; first compound 15.81 µM,0.49
same,relative viability,GSK-J4 + Palbociclib; first compound 50 µM,0.47
same,relative viability,GSK-J4 + AZD7762; first compound 0.5 µM,0.845
same,relative viability,GSK-J4 + AZD7762; first compound 1.581 µM,0.756
same,relative viability,GSK-J4 + AZD7762; first compound 5 µM,0.634
same,relative viability,GSK-J4 + AZD7762; first compound 15.81 µM,0.785
same,relative viability,GSK-J4 + AZD7762; first compound 50 µM,0.81
NCI-H2126,relative viability,AZ3146 + Crizotinib; first compound 0.08 µM,1.05
same,relative viability,AZ3146 + Crizotinib; first compound 0.253 µM,0.992
same,relative viability,AZ3146 + Crizotinib; first compound 0.8 µM,1.06
same,relative viability,AZ3146 + Crizotinib; first compound 2.53 µM,1.07
same,relative viability,AZ3146 + Crizotinib; first compound 8 µM,0.989
same,relative viability,AZ3146 + Decitabine; first compound 0.08 µM,0.626
same,relative viability,AZ3146 + Decitabine; first compound 0.253 µM,0.604
same,relative viability,AZ3146 + Decitabine; first compound 0.8 µM,0.569
same,relative viability,AZ3146 + Decitabine; first compound 2.53 µM,0.597
same,relative viability,AZ3146 + Decitabine; first compound 8 µM,0.572
same,relative viability,GSK-J4 + Palbociclib; first compound 0.5 µM,0.374
same,relative viability,GSK-J4 + Palbociclib; first compound 1.581 µM,0.397
same,relative viability,GSK-J4 + Palbociclib; first compound 5 µM,0.356
same,relative viability,GSK-J4 + Palbociclib; first compound 15.81 µM,0.333
same,relative viability,GSK-J4 + Palbociclib; first compound 50 µM,0.358
same,relative viability,GSK-J4 + AZD7762; first compound 0.5 µM,1
same,relative viability,GSK-J4 + AZD7762; first compound 1.581 µM,0.928
same,relative viability,GSK-J4 + AZD7762; first compound 5 µM,1.05
same,relative viability,GSK-J4 + AZD7762; first compound 15.81 µM,0.891
same,relative viability,GSK-J4 + AZD7762; first compound 50 µM,0.89
